{"source": "paper PMC9640990", "about": "(Frontiers in Pharmacology, 2022)", "system": "Caco-2 cells", "assay": "Bidirectional transport of ciprofloxacin in Caco-2 cells", "type": "in vitro ADME", "conditions": "GA 50 μM, PCA 50 μM, PCE 100 mg/ml, p < 0.05", "description": "The Caco-2 cell lines were obtained from the National Collection of Authenticated Cell Cultures (NCACC, Shanghai, China). The bi-directional transport assay was performed on 12-mm Transwell Permeable Supports with 0.4 mm-pore polycarbonate membrane insert and 1.12 cm^2 growth areas. […] The cells were seeded at a density of 3×10^5 cells/well, incubated at 37°C and 5% CO2, and cultured for 21 days with replacement of cell culture medium supplemented with 1% penicillin-streptomycin every second day. Membrane filters were placed in a 12 mm well with 1.5 and 0.5 ml of culture medium in the basolateral and apical compartments, respectively. TEER was measured as an indication of an intact monolayer using a Millicell ERS voltohmmeter (Millipore, Merck). […] Aliquots of 50 μl were collected from the acceptor compartment at 0.5 h. The apparent permeability coefficient (P app) was calculated using the following formula: P app = (dC/dt) × V r/(A × C 0), where dC/dt is the alteration in concentration over time, V r is the volume of the receiver compartment, A is the area of the cell monolayer, and C 0 is the initial concentration in the donor compartment. The permeation of drug from the apical (A) to the basolateral (B) side of the cells (P app,A-B) is compared with the permeation in the opposite direction (P app,B-A).", "data": [{"smiles": "O=C(O)c1ccc(O)c(O)c1", "note": "[PCA, protocatechuic acid]", "values": [{"measurement": "change of net efflux ratio of CIP after co-treatment", "value": "significant improvement"}]}]}
